{"source": "patent US4130647A", "about": "“Methods for treating congestive heart failure and ischemic heart disease” (priority 1977, dated 1978)", "key": {"[1]": {"test_system": "patients with chronic left sided congestive heart failure", "assay": "Treadmill exercise duration until marked dyspnea, trimazosin (Example 3)", "type": "in vivo, human", "conditions": "for improvement in exercise duration vs. placebo: p<0.025", "excerpt": "(§1) Sixteen men between 41 and 66 years of age with chronic left sided congestive heart failure were subjects. Twelve patients had coronary heart disease with an old healed myocardial infarction, one patient had alcoholic cardiomyopathy, and three patients had idiopathic cardiomyopathy as the cause of their chronic heart failure. All 16 patients had cardiomegaly on physical examination and on their chest roentgenogram, a left ventricular third heart sound heard by auscultation, and evidence of pulmonary venous congestion on their chest roentgenogram. Their baseline standing blood pressures ranged between 114 and 150 mm. Hg. systolic and 72 and 100 mm. Hg. diastolic.\nThe patients received digitalis and diuretic therapy for 6 to 48 months. Their dose of digitalis and diuretic was not changed during this study. Except for potassium chloride, no other medications were taken by any of the 16 patients during this study. All patients signed informed consent forms.\n(§2) After baseline measurements, all 16 patients received one capsule of single-blind placebo three times daily for two weeks. The patients then received in a double-blind, randomized study trimazosin or placebo for six weeks. Eight patients received one placebo capsule three times daily for weeks one and two, two placebo capsules three times daily for weeks three and four, and three placebo capsules three times daily for weeks five and six of the double-blind period. Seven patients received one 50 mg. trimazosin capsule three times daily for weeks one and two, two 50 mg. trimazosin capsules three times daily for weeks three and four, and three 50 mg. trimazosin capsules three times daily for weeks five and six of the double-blind period. One patient (patient number five on trimazosin) received one 50 mg. trimazosin capsule three times daily for 32 days. Their trimazosin dose was not increased after two weeks of this dose because their standing systolic blood pressure was 104/70 mm. Hg.\n(§3) Two practice treadmill tests were performed by all patients prior to the baseline period. The patients performed a multi-stage uninterrupted treadmill exercise test until the onset of marked dyspnea in the baseline period, and approximately two hours after their morning dose of medication after two weeks of single-blind placebo, after three weeks of double-blindmedication, and after six weeks of double-blind medication. The patients exercised at a treadmill speed of 1.7 m.p.h. and a treadmill grade of 0% for the first 3 min., a treadmill speed of 1.7 m.p.h. and a treadmill grade of 10% for the next 3 min., at a treadmill speed of 2.5 m.p.h. and a treadmill grade of 12% for the third 3 min. period, and then at a treadmill speed of 3.4 m.p.h. and a treadmill grade of 14%.\n(§4) The data listed in Tables 1-4 were analyzed using Student's t test for independent means. Fisher's exact test was used to analyze the data on improvement of symptoms and the data on changes in roentgenographic evidence of pulmonary venous congestion."}, "[2]": {"test_system": "patients with chronic left sided congestive heart failure", "assay": "Resting and exercise blood pressure, heart rate, ST-segment depression and cardiothoracic ratio, trimazosin (Example 3)", "type": "in vivo, human", "conditions": "for Cardiothoracic ratio / Exercise diastolic blood pressure / Exercise heart rate / Exercise systolic blood pressure / Exercise systolic pressure times heart rate/100 / Maximal ST-segment depression below resting level / Resting diastolic blood pressure / Resting heart rate / Resting systolic blood pressure / Resting systolic pressure times heart rate/100: mean", "excerpt": "as §1\nas §2, with “days.” for “days. Their trimazosin dose was not increased after two weeks of this dose because their standing systolic blood pressure was 104/70 mm. Hg.”\nThe patients were seen by one of the investigators, questioned for symptoms, and given a physical examination in the baseline period, at the end of two weeks of single-blind placebo, and at the end of weeks one, two, three, four, five, and six on double-blind medication. A standard 12-lead electrocardiogram and PA and lateral chest roentgenograms were taken in the baseline period, at the end of two weeks of single-blind placebo, and at the end of three weeks and six weeks on double-blind medication.\nas §3\nThe patients were monitored by telemetry with simultaneous leads II and V5 throughout exercise. […] blood pressures were recorded with the patients in the sitting and standing positions immediately before exercise, with the patients in the standing position at the end of each completed stage of exercise and at the end of exercise, and with the patients in the sitting and standing positions every 1 min. for at least 5 min. after the end of exercise. Blood pressures were recorded with a mercury sphygmomanometer. The heart rates were measured from the electrocardiographic recordings.\nas §4"}, "[3]": {"test_system": "patients with chronic left sided congestive heart failure", "assay": "Adverse effects of trimazosin (Example 3)", "type": "in vivo, human", "procedure": "The patients then received in a double-blind, randomized study trimazosin or placebo for six weeks. Eight patients received one placebo capsule three times daily for weeks one and two, two placebo capsules three times daily for weeks three and four, and three placebo capsules three times daily for weeks five and six of the double-blind period. Seven patients received one 50 mg. trimazosin capsule three times daily for weeks one and two, two 50 mg. trimazosin capsules three times daily for weeks three and four, and three 50 mg. trimazosin capsules three times daily for weeks five and six of the double-blind period. One patient (patient number five on trimazosin) received one 50 mg. trimazosin capsule three times daily for 32 days. […] The patients were seen by one of the investigators, questioned for symptoms, and given a physical examination in the baseline period, at the end of two weeks of single-blind placebo, and at the end of weeks one, two, three, four, five, and six on double-blind medication. A standard 12-lead electrocardiogram and PA and lateral chest roentgenograms were taken in the baseline period, at the end of two weeks of single-blind placebo, and at the end of three weeks and six weeks on double-blind medication."}, "norepinephrine": {"test_system": "norepinephrine", "conditions": "in vivo; cited from earlier work"}, "[4]": {"conditions": "patient number five, four days prior to the myocardial infarction"}}, "note": "Several values for one entry are separate records, joined by “and”; a condition that tells them apart may be missing. Identical values can stand only once.", "data": [{"smiles": "COc1cc2c(N)nc(N3CCN(C(=O)OCC(C)(C)O)CC3)nc2c(OC)c1OC", "note": "[trimazosin, 2-hydroxy-2-methylpropyl 4-(4-amino-6,7,8-trimethoxy-2-quinazolinyl)-1-piperazinecarboxylate]", "values": [{"measurement": "Double-blind trimazosin (3 weeks) exercise time", "setting": "[1]; 300 mg. daily (patient 5: 150 mg. daily), individual patients", "value": "180 s and 428 s and 398 s and 280 s and 298 s and 389 s and 476 s and 322 s"}, {"measurement": "Double-blind trimazosin (6 weeks) exercise time", "setting": "[1]; 450 mg. daily, individual patients", "value": "232 s and 295 s and 406 s and 435 s and 627 s and 527 s and 363 s"}, {"measurement": "Change from average of baseline and placebo exercise times", "setting": "[1]; 3 weeks, 300 mg. daily (patient 5: 150 mg. daily), individual patients", "value": "+110%"}, {"measurement": "Double-blind trimazosin (3 weeks) exercise time, mean", "setting": "[1]; 3 weeks, mean, baseline/placebo average 255.5", "value": 346.4, "unit": "s"}, {"measurement": "improvement in exercise duration vs. placebo", "setting": "[1]; 3 weeks", "value": "significantly greater"}, {"measurement": "Change from average of baseline and placebo exercise times", "setting": "[1]; 6 weeks, 450 mg. daily, individual patients", "value": "+136% and +122%"}, {"measurement": "Double-blind trimazosin (6 weeks) exercise time, mean", "setting": "[1]; 6 weeks, 450 mg. daily, mean", "value": 412.1, "unit": "s"}, {"measurement": "improvement in exercise duration vs. placebo", "setting": "[1]; 6 weeks", "value": "significantly greater"}, {"measurement": "resting systolic blood pressure, change compared with placebo", "setting": "[2]; 3 weeks, p<0.001", "value": "significant decrease"}, {"measurement": "resting product of systolic blood pressure times heart rate, change compared with placebo", "setting": "[2]; 3 weeks, p<0.005", "value": "significant decrease"}, {"measurement": "resting diastolic blood pressure, change compared with placebo", "setting": "[2]; 3 weeks, p<0.025", "value": "significant decrease"}, {"measurement": "diastolic blood pressure at the end of exercise, change compared with placebo", "setting": "[2]; 6 weeks, p<0.005", "value": "significant decrease"}, {"measurement": "resting diastolic blood pressure, change compared with placebo", "setting": "[2]; 6 weeks, p<0.005", "value": "significant decrease"}, {"measurement": "resting systolic blood pressure, change compared with placebo", "setting": "[2]; 6 weeks, p<0.005", "value": "significant decrease"}, {"measurement": "resting product of systolic blood pressure times heart rate, change compared with placebo", "setting": "[2]; 6 weeks, p<0.01", "value": "significant decrease"}, {"measurement": "standing systolic blood pressure", "setting": "[2]; patient number five, after two weeks of 50 mg. three times daily", "value": "104/70"}, {"measurement": "blood pressure, standing position", "setting": "[2]; [4]", "value": "104/70"}, {"measurement": "blood pressure, supine position", "setting": "[2]; [4]", "value": "106/70"}, {"measurement": "Cardiothoracic ratio", "setting": "[2]; trimazosin 3 weeks", "value": 0.559}, {"measurement": "Exercise diastolic blood pressure", "setting": "[2]; trimazosin 3 weeks", "value": 84.8, "unit": "mm Hg"}, {"measurement": "Exercise heart rate", "setting": "[2]; trimazosin 3 weeks", "value": 149.3, "unit": "beats/min"}, {"measurement": "Exercise systolic blood pressure", "setting": "[2]; trimazosin 3 weeks", "value": 156.5, "unit": "mm Hg"}, {"measurement": "Exercise systolic pressure times heart rate/100", "setting": "[2]; trimazosin 3 weeks", "value": 236.4}, {"measurement": "Maximal ST-segment depression below resting level", "setting": "[2]; trimazosin 3 weeks", "value": 1.31, "unit": "mm"}, {"measurement": "Resting diastolic blood pressure", "setting": "[2]; trimazosin 3 weeks", "value": 74.3, "unit": "mm Hg"}, {"measurement": "Resting heart rate", "setting": "[2]; trimazosin 3 weeks", "value": 86.3, "unit": "beats/min"}, {"measurement": "Resting systolic blood pressure", "setting": "[2]; trimazosin 3 weeks", "value": 116.0, "unit": "mm Hg"}, {"measurement": "Resting systolic pressure times heart rate/100", "setting": "[2]; trimazosin 3 weeks", "value": 100.0}, {"measurement": "Cardiothoracic ratio", "setting": "[2]; trimazosin 6 weeks", "value": 0.556}, {"measurement": "Exercise diastolic blood pressure", "setting": "[2]; trimazosin 6 weeks", "value": 80.5, "unit": "mm Hg"}, {"measurement": "Exercise heart rate", "setting": "[2]; trimazosin 6 weeks", "value": 151.0, "unit": "beats/min"}, {"measurement": "Exercise systolic blood pressure", "setting": "[2]; trimazosin 6 weeks", "value": 154.3, "unit": "mm Hg"}, {"measurement": "Exercise systolic pressure times heart rate/100", "setting": "[2]; trimazosin 6 weeks", "value": 235.4}, {"measurement": "Maximal ST-segment depression below resting level", "setting": "[2]; trimazosin 6 weeks", "value": 1.31, "unit": "mm"}, {"measurement": "Resting diastolic blood pressure", "setting": "[2]; trimazosin 6 weeks", "value": 72.5, "unit": "mm Hg"}, {"measurement": "Resting heart rate", "setting": "[2]; trimazosin 6 weeks", "value": 86.5, "unit": "beats/min"}, {"measurement": "Resting systolic blood pressure", "setting": "[2]; trimazosin 6 weeks", "value": 112.0, "unit": "mm Hg"}, {"measurement": "Resting systolic pressure times heart rate/100", "setting": "[2]; trimazosin 6 weeks", "value": 96.9}, {"measurement": "adverse effects attributed to medication", "setting": "[3]; 16 patients (trimazosin or placebo)", "value": "No adverse effects attributed to medication occurred in any of the 16 patients"}, {"measurement": "adverse effects such as systemic lupus erythematosus", "setting": "[3]; in vivo", "value": "has not been associated with adverse effects such as systemic lupus erythematosus"}, {"measurement": "reflex tachycardia", "setting": "[3]; in vivo", "value": "does not produce a reflex tachycardia"}, {"measurement": "event in patient number five", "setting": "[3]; thirty-second day of trimazosin therapy", "value": "acute myocardial infarction with ventricular fibrillation"}, {"measurement": "side effects", "setting": "[3]; trimazosin 450 mg. daily", "value": "without occurrence of any side effects"}, {"measurement": "digital vascular reactivity to norepinephrine infusion", "setting": "norepinephrine", "value": "decreased"}, {"measurement": "norepinephrine uptake and secretion", "setting": "norepinephrine", "value": "not affected"}]}]}
